Source: US20070043076A1, “Substituted 2-arylmethylene-n-aryl-n'aryl-malonamides and analogs as activators of caspases and inducers of apoptosis” (priority 2003, published 2007)
Where two headings read alike, the source gives them in different places.

Legend:
[1] = system: DLD-1; assay: Inhibition of cell proliferation (GI50, CellTiter 96 AQueous One) in DLD-1 cells; assay type: cell-based; settings: Homo sapiens, 48 h incubation, read-out: GI50 (dose for 50% inhibition of cell proliferation)
Description: (§1) T-47D and DLD-1 cells were grown and harvested as in Example 105. An aliquot of 90 μL of cells (2.2×10^4 cells/mL) was added to a well of a 96-well microtiter plate containing 10 μl of a 10% DMSO in RPMI-1640 media solution containing 1 nM to 100 μM of N,N′-bis-(3-trifluoromethyl-phenyl)-2-(4-isopropyl-benzylidene)-malonamide (0.1 nM to 10 μM final). An aliquot of 90 μL of cells was added to a well of a 96-well microtiter plate containing 10 μL of a 10% DMSO in RPMI-1640 media solution without compound as the control sample for maximal cell proliferation (AMax). The samples were mixed by agitation and then incubated at 37° C. for 48 h in a 5% CO2-95% humidity incubator. After incubation, the samples were removed from the incubator and 20 μL of CellTiter 96 AQUEOUS One Solution Cell Proliferation™ reagent (Promega) was added. The samples were mixed by agitation and incubated at 37° C. for 2-4 h in a 5% CO2-95% humidity incubator. Using an absorbance plate reader (Model 1420 Wallac Instruments), an initial reading (T=0) was made approximately 1-2 min after addition of the solution, employing absorbance at 490 nm. This determines the possible background absorbance of the test compounds. No absorbance for N,N′-bis-(3-trifluoromethyl-phenyl)-2-(4-isopropyl-benzylidene)-malonamide was found at 490 nm. After the 2-4 h incubation, the samples were read for absorbance as above (ATest).
(§2) Baseline for GI50 (dose for 50% inhibition of cell proliferation) of initial cell numbers were determined by adding an aliquot of 90 μL of cells or 90 μL of media, respectively, to wells of a 96-well microtiter plate containing 10 μL of a 10% DMSO in RPMI-1640 media solution. The samples were mixed by agitation and then incubated at 37° C. for 0.5 h in a 5% CO2-95% humidity incubator. After incubation, the samples were removed from the incubator and 20 μL of CellTiter 96 AQUEOUS One Solution Cell Proliferation™ reagent (Promega) was added. The samples were mixed by agitation and incubated at 37° C. for 2-4 h in a 5% CO2-95% humidity incubator. Absorbance was read as above, (AStart) defining absorbance for initial cell number used as baseline in GI50 determinations.
(§3) GI50 (dose for 50% inhibition of cell proliferation) is the concentration where [(ATest−AStart)/(AMax−AStart)]=0.5.

[2] = system: T-47D; assay: Inhibition of cell proliferation (GI50, CellTiter 96 AQueous One) in T-47D cells; assay type: cell-based; settings: Homo sapiens, T47D, 48 h incubation, read-out: GI50 (dose for 50% inhibition of cell proliferation)
Description: as §1, §2, §3

[3] = system: ZR-75-1; assay: Caspase cascade activation (Ac-DEVD-R110 fluorogenic substrate) in ZR-75-1 cells; assay type: cell-based, Human; settings: 24 h incubation; for Caspase Activity Ratio: ratio of net RFU to that of control samples; for EC50: 0.16 to 10 μM final, read-out: Caspase potency EC50
Description: (§4) Human breast cancer cell lines T-47D and ZR-75-1 were grown according to media component mixtures designated by American Type Culture Collection +10% FCS (Invitrogen Corporation), in a 5% CO2-95% humidity incubator at 37° C. T-47D and ZR-75-1 cells were maintained at a cell density between 30 and 80% confluency and for HL-60 at a cell density of 0.1 to 0.6×10^6 cells/mL. Cells were harvested at 600×g and resuspended at 0.65×10^6 cells/mL into appropriate media +10% FCS. An aliquot of 45 μL of cells was added to a well of a 96-well microtiter plate containing 5 μL of a 10% DMSO in RPMI-1640 media solution containing 1.6 to 100 μM of N,N′-bis-(3-trifluoromethyl-phenyl)-2-(4-isopropyl-benzylidene)-malonamide or other test compound (0.16 to 10 μM final). An aliquot of 45 μL of cells was added to a well of a 96-well microtiter plate containing 5 μL of a 10% DMSO in RPMI-1640 media solution without test compound as the control sample. The samples were mixed by agitation and then incubated at 37° C. for 24 h in a 5% CO2-95% humidity incubator. After incubation, the samples were removed from the incubator and […] of a solution containing 20 μM of N-(Ac-DEVD)-N′-ethoxycarbonyl-R110 fluorogenic substrate (SEQ ID NO:1) (Cytovia, Inc.; U.S. Pat. No. 6,335,429), 20% sucrose (Sigma), 20 mM DTT (Sigma), 200 mM NaCl (Sigma), 40 mM Na PIPES buffer pH 7.2 (Sigma), and 500 μg/mL lysolecithin (Calbiochem) was added. The samples were mixed by agitation and incubated at room temperature. Using a fluorescent plate reader (Model 1420 Wallac Instruments), an initial reading (T=0) was made approximately 1-2 min after addition of the substrate solution, employing excitation at 485 nm and emission at 530 nm, to determine the background fluorescence of the control sample. After approximately 3 h of incubation, the samples were read for fluorescence as above (T=3 h).
(§5) The relative Fluorescence Unit values (RFU) were used to calculate the sample readings as follows: RFU(T=3h)−Control RFU(T=0)=Net RFU(T=3h)
(§6) The activity of caspase cascade activation was determined by the ratio of the net RFU value for N,N′-bis-(3-trifluoromethyl-phenyl)-2-(4-isopropyl-benzylidene)-malonamide to that of control samples. The EC50 (nM) was determined by a sigmoidal dose-response calculation (Prism 2.0, GraphPad Software Inc.).

[4] = system: T-47D; assay: Caspase cascade activation (Ac-DEVD-R110 fluorogenic substrate) in T-47D cells; assay type: cell-based, Human; settings: 24 h incubation; for Caspase Activity Ratio: ratio of net RFU to that of control samples; for EC50: 0.16 to 10 μM final, read-out: Caspase potency EC50
Description: as §4, §5, §6

| Compound | GI50 [1] | GI50 [2] | EC50 ([3]; Homo sapiens) | EC50 ([4]; Homo sapiens, T47D) | EC50 [3] | EC50 [4] | Caspase Activity Ratio [3] | Caspase Activity Ratio [4] |
| --- | --- | --- | --- | --- | --- | --- | --- | --- |
| COc1cccc(NC(=O)C(=Cc2ccc(C(F)(F)F)cc2)C(=O)Nc2cccc(OC)c2)c1 [Example 1, N,N′-Bis-(3-methoxy-phenyl)-2-(4-trifluoromethyl-benzylidene)-malonamide] |  |  | 5.5 µM | 2.85 µM |  |  | 14 | 28 |
| O=C(Nc1cccc(C(F)(F)F)c1)C(=Cc1ccco1)C(=O)Nc1cccc(C(F)(F)F)c1 [Example 4, N,N′-Bis-(3-trifluoromethyl-phenyl)-2-furan-2-yl-methylene-malonamide] |  |  |  |  | 5.6 µM | 5.75 µM | 6 | 28 |
| CC(C)c1ccc(C=C(C(=O)Nc2cccc(Cl)c2)C(=O)Nc2cccc(Cl)c2)cc1 [Example 14, N,N′-Bis-(3-chloro-phenyl)-2-(4-isopropyl-benzylidene)-malonamide] | 1.23 µM | 1.19 µM | 1.98 µM | 0.738 µM |  |  | 7.2 | 21 |
| COc1cccc(NC(=O)C(=Cc2ccc(C(C)C)cc2)C(=O)Nc2cccc(OC)c2)c1 [Example 13, N,N′-Bis-(3-methoxy-phenyl)-2-(4-isopropyl-benzylidene)-malonamide] |  |  | 5.5 µM | 2.89 µM |  |  | 4.5 | 21 |
| COc1ccc(C=C(C(=O)Nc2cccc(C(F)(F)F)c2)C(=O)Nc2cccc(C(F)(F)F)c2)c(OC)c1 [Example 6, N,N′-Bis-(3-trifluoromethyl-phenyl)-2-(2,4-dimethoxy-benzylidene)-malonamide] |  |  | > 10 µM | > 10 µM |  |  | 1 | 1 |
| CC(C)c1ccc(C=C(C(=O)Nc2cccc(O)c2)C(=O)Nc2cccc(O)c2)cc1 [Example 18, N,N′-Bis-(3-hydroxy-phenyl)-2-(4-isopropyl-benzylidene)-malonamide] | 1.65 µM | 0.467 µM |  |  |  |  |  |  |
| CC(C)c1ccc(C=C(C(=O)Nc2ccccc2)C(=O)Nc2ccccc2)cc1 [Example 10, N,N′-Diphenyl-2-(4-isopropyl-benzylidene)-malonamide] |  |  | 4.5 µM | 5.79 µM |  |  | 2.5 | 16 |
| O=C(Nc1cccc(C(F)(F)F)c1)C(=Cc1cnc[nH]1)C(=O)Nc1cccc(C(F)(F)F)c1 [Example 16, N,N′-Bis-(3-trifluoromethyl-phenyl)-2-(3H-imidazol-4-yl-methylene)-malonamide] | 1.68 µM | 1.72 µM |  |  |  |  |  |  |
| O=C(Nc1cccc(C(F)(F)F)c1)C(=Cc1ccc(Cl)cc1Cl)C(=O)Nc1cccc(C(F)(F)F)c1 [Example 2, N,N′-Bis-(3-trifluoromethyl-phenyl)-2-(2,4-dichloro-benzylidene)-malonamide] | 0.2 µM | 0.15 µM | 0.906 µM | 0.647 µM |  |  | 18 | 16 |

Continued, in another order:

| GI50 [1] | GI50 [2] | EC50 ([3]; Homo sapiens) | EC50 ([4]; Homo sapiens, T47D) | EC50 [3] | EC50 [4] | Compound | Caspase Activity Ratio [3] | Caspase Activity Ratio [4] |
| --- | --- | --- | --- | --- | --- | --- | --- | --- |
| 1.66 µM | 1.52 µM |  |  |  |  | CC(C)c1ccc(C=C(C(=O)Nc2cccc(Br)c2)C(=O)Nc2cccc(Br)c2)cc1 [Example 20, N,N′-Bis-(3-bromo-phenyl)-2-(4-isopropyl-benzylidene)-malonamide] |  |  |
|  |  | > 10 µM | > 10 µM |  |  | CC(C)c1ccc(C=C(C(=O)Nc2ccc(C(F)(F)F)cc2)C(=O)Nc2ccc(C(F)(F)F)cc2)cc1 [Example 12, N,N′-Bis-(4-trifluoromethyl-phenyl)-2-(4-isopropyl-benzylidene)-malonamide] | 1 | 1 |
|  |  | 5.4 µM | 1.9 µM |  |  | Cc1ccc(C=C(C(=O)Nc2cccc(C(F)(F)F)c2)C(=O)Nc2cccc(C(F)(F)F)c2)c(C)c1 [Example 5, N,N′-Bis-(3-trifluoromethyl-phenyl)-2-(2,4-dimethyl-benzylidene)-malonamide] | 26 | 30 |
| 1.53 µM | 1.57 µM | 4.6 µM | 4.05 µM |  |  | O=C(Nc1cccc(C(F)(F)F)c1)C(=Cc1ccncc1)C(=O)Nc1cccc(C(F)(F)F)c1 [Example 8, N,N′-Bis-(3-trifluoromethyl-phenyl)-2-(4-pyridyl-methylene)-malonamide] | 9.5 | 17 |
| 1.65 µM | 0.666 µM |  |  |  |  | CCc1ccc(C=C(C(=O)Nc2cccc(C(F)(F)F)c2)C(=O)Nc2cccc(C(F)(F)F)c2)cc1 [Example 26, N,N′-Bis-(3-trifluoromethyl-phenyl)-2-(4-ethyl-benzylidene)-malonamide] |  |  |
| 1.34 µM | 0.046 µM | 2.79 µM | 1.38 µM |  |  | O=C(Nc1cccc(C(F)(F)F)c1)C(=Cc1ccccc1)C(=O)Nc1cccc(C(F)(F)F)c1 [Example 15, N,N′-Bis-(3-trifluoromethyl-phenyl)-2-benzylidene-malonamide] | 6 | 16 |
|  |  | > 10 µM | > 10 µM |  |  | CC(C)c1ccc(C=C(C(=O)Nc2ccccc2C(F)(F)F)C(=O)Nc2ccccc2C(F)(F)F)cc1 [Example 11, N,N′-Bis-(2-trifluoromethyl-phenyl)-2-(4-isopropyl-benzylidene)-malonamide] | 1 | 1 |
|  |  | 1.7 µM | > 10 µM |  |  | CC(C)c1ccc(CC(C(=O)Nc2cccc(C(F)(F)F)c2)C(=O)Nc2cccc(C(F)(F)F)c2)cc1 [Example 7, N,N′-Bis-(3-trifluoromethyl-phenyl)-2-(4-isopropyl-benzyl)-malonamide] | 2.2 | 1 |
